Source: PMC7033572, “Cytochrome P450-Based Drug-Drug Interactions of Vonoprazan In Vitro and In Vivo” (Frontiers in Pharmacology, 2020)
“Also recorded” adds a separate entry of the source.

Columns and labels:
in vivo = experiment: in vivo
Description: The mobile phase comprising acetonitrile (A) and 0.1% formic acid water (B) was set with a 0.40-ml/min flow rate. […] MassLynx 4.1 software (Waters Corp., Milford, MA, USA) was used for data acquisition, and the UPLC-MS/MS chromatogram of blank plasma that was spiked with probe drugs and metabolites is shown below ( Figure 1 ).
Ten specific pathogen-free (SPF) grade Sprague–Dawley rats (male, 220 ± 20 g) were provided by Wenzhou Medical University Laboratory Animal Research Center. This study was carried out in accordance with the principles of the Basel Declaration and recommendations of Wenzhou Medical University Administration Committee of Experimental Animals. The protocol was approved by the Wenzhou Medical University Administration Committee of Experimental Animals (ID Number: wydw2019-650). Ten rats were randomly divided into two groups: the vonoprazan group (n = 5) and control group (n = 5). Both groups were fasted overnight before experiments but were allowed water all the time. The six probe drug mixtures and vonoprazan were dissolved in 0.5% carboxy methyl cellulose sodium (CMC-Na), respectively. The vonoprazan group was administered 5 mg/kg of vonoprazan for 14 days. The control group was administered 0.5% CMC-Na.
Next, the samples were collected into 1.5-ml centrifuge tubes and were immediately centrifuged for 10 min at 4,000 rpm speed. For every 100 µl of rat plasma was added with 200 µl of acetonitrile in 0.5 μg/ml of IS was added, followed by vortex mixing for one minute. […] In vitro DDI detection system, the pH was 7.4 and the component of buffer was consisted of 100 mM potassium phosphate.
The GraphPad (version 7.0; GraphPad Software Inc., San Diego, CA, USA) was applied to calculate IC50 values and plot plasma concentration-time curves. The pharmacokinetic parameters using noncompartmental analysis was calculated by DAS (version 3.2.8; Wenzhou Medical University, China). Statistical comparisons within groups were conducted by SPSS (version 25.0; SPSS Inc., Chicago, IL, USA), using Student's t-test.

CYP3A4 = experiment: Reversible inhibition of midazolam metabolism by vonoprazan in rat liver microsomes (probe cocktail, UPLC-MS/MS); type: in vitro ADME; conditions: pH 7.4, probe midazolam (5 μM), rat liver microsomes 0.5 mg/ml, n = 3
Experimental: (§1) The pooled rat liver microsomes (RLMs) obtained from eight rats, which were weighed and homogenized with cold […] phosphate-buffered saline (PBS), containing […]. After centrifugation for 15 min at 11,000 rpm, the supernatants were separated and transferred into new tubes for another 15-min centrifugation at 11,000 rpm. Next, ultracentrifugation was performed at […] at 4°C for 1 h., and the microsomal pellets were resuspended with cold […] PBS and stored at −80°C ([Wang et al., 2015]). The protein concentration of RLMs was determined using the Bradford Protein Assay Kit (Thermo Scientific, Waltham, MA, USA).
(§2) Next, vonoprazan was applied as the inhibitor to determine the half maximal inhibitory concentration (IC50). […]. After preincubation in a shaking water bath at 37°C for 5 min, an NADPH-regenerating system was added to initiate the reaction in a final volume of 200 μl. The reaction was performed for 30 min, and was stopped by cooling to −80°C immediately. Next, 20 μl of internal standard (IS) working solution and 200 μl of acetonitrile were added. Centrifugation was performed at 13,000 rpm for 5 min after vortexing for 1 min. The supernatant mixture (2 μl) was injected into the UPLC–MS/MS system for analysis.

CYP2C9 = experiment: Reversible inhibition of tolbutamide metabolism by vonoprazan in rat liver microsomes (probe cocktail, UPLC-MS/MS); type: in vitro ADME; conditions: pH 7.4, probe tolbutamide (10 μM), IC50 of vonoprazan on tolbutamide metabolism (CYP2C9), rat liver microsomes 0.5 mg/ml, n = 3
Experimental: as §1, §2

CYP2D6 = experiment: Reversible inhibition of dextromethorphan metabolism by vonoprazan in rat liver microsomes (probe cocktail, UPLC-MS/MS); type: in vitro ADME; conditions: pH 7.4, probe dextromethorphan (100 μM), rat liver microsomes 0.5 mg/ml, n = 3
Experimental: as §1, §2

CYP2B6 = experiment: Reversible inhibition of bupropion metabolism by vonoprazan in rat liver microsomes (probe cocktail, UPLC-MS/MS); type: in vitro ADME; conditions: pH 7.4, probe bupropion (20 μM)
Experimental: as §1, §2

CYP1A2 = molecular target: T1, CYP1A2 (Rattus norvegicus, UniProt P04799); experiment: Reversible inhibition of phenacetin metabolism by vonoprazan in rat liver microsomes (probe cocktail, UPLC-MS/MS); type: in vitro ADME; conditions: vonoprazan 1-100 μM, phenacetin 40 μM
T1 construct: contained 0.5 mg/ml of RLMs; from tissue; host or cells: pooled rat liver microsomes
T1 sequence (P04799 1-513): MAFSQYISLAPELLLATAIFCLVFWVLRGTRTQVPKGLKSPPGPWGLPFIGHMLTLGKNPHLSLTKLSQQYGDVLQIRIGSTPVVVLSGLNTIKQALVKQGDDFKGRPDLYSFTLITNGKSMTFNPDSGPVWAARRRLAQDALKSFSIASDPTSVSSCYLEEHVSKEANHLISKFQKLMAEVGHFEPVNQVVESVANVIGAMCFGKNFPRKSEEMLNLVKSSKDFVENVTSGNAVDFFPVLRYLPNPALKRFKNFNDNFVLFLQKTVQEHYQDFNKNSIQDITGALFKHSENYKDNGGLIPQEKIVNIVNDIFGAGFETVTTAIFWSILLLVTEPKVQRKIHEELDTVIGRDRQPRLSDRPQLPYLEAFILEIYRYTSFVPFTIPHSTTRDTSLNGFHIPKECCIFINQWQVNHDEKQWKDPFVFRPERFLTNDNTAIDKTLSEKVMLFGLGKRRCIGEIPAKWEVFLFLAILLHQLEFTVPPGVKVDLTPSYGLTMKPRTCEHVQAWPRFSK
Experimental: as §1, §2

[1] = set-up: method as in Kogame et al., 2017; conditions: rats; ref Kogame et al., 2017; cited from earlier work
[2] = male, Sprague-Dawley, rat, in vivo, po
[3] = rats, Student's t-test, P < 0.05
[4] = rats, vonoprazan group vs control group
[5] = male, Sprague-Dawley, rat, in vivo
[6] = male, Sprague-Dawley, rat, in vivo, po, 10 mg/kg

Work on `CCCCNC(=O)NS(=O)(=O)c1ccc(C)cc1` [Vonoprazan + tolbutamide] yielded a CLz/F (in vivo; rat, in vivo, po) of 0.033 ± 0.017 mL/min/kg, a Tmax (in vivo; rat, in vivo, po) of 3.60 ± 1.34 h and a Vz/F (in vivo; rat, in vivo, po) of 0.0140 ± 0.0020 L/kg. For the same molecule, the t1/2z (in vivo; rat, in vivo, po) was 4.83 ± 1.27 h.

Work on `COc1ccc2c(c1)[C@]13CCCC[C@@H]1[C@H](C2)N(C)CC3` [Dextromethorphan] yielded a CL/F (in vivo; [2]) of 532 mL/min/kg, a Tmax (in vivo; [2]) of 0.75 ± 0.77 h and a Vd/F (in vivo; [2]) of 125 ± 88.5 L/kg. The half-life (in vivo; [2]) was 2.61 ± 1.47 h, the “Difference in pharmacokinetic parameters after vonoprazan administration compared with the control group” value (shortened to “Difference in pharmacokinetic parameters”) (in vivo; [3]) was “significant differences” and the “Decrease of CLz/F by vonoprazan” value (in vivo; [4]) was 61.0%. For the same molecule, the “Increase of AUC0→t compared with the control group” value (“Increase of AUC0→t” for short) (in vivo; [4]) was 1.52 fold, the “Increase of AUC0→∞ compared with the control group” value (from here on “Increase of AUC0→∞”) (in vivo; [4]) was 1.50 fold and the “Increase of Cmax by addition of vonoprazan” value (from here on “Increase of Cmax”) (in vivo; [4]) was 1.87 fold.

With `CNCc1cc(-c2ccccc2F)n(S(=O)(=O)c2cccnc2)c1` [vonoprazan, Vonoprazan] the IC50 at 30 min (CYP3A4) was […], the IC50 at 30 min (CYP2C9) was 18.3 µM and the IC50 at 30 min (CYP2D6) was 3.62 µM. The IC50 at 30 min (CYP2B6) was 3.68 µM, the “Inhibition of phenacetin metabolism (CYP1A2) by vonoprazan” value (CYP1A2) was “no inhibition; also recorded: no effect” and the “Reference maximum plasma concentration level” value [1] was […].

In the case of `CC(NC(C)(C)C)C(=O)c1cccc(Cl)c1` (stereo not shown) [Bupropion], the “Decrease of CLz/F by vonoprazan” value (in vivo; [5]) is reported as 70.6%, the “Decrease of Vz/F by vonoprazan” value (in vivo; [5]) is reported as 53.3% and the “Increase of AUC0→t” value (in vivo; [5]) is reported as 2.17 fold. The “Increase of AUC0→∞” value (in vivo; [5]) was 2.30 fold, the “Increase of Cmax” value (in vivo; [5]) was 2.33 fold and the AUC(0-inf) (in vivo; [6]) was 243 ± 107 ng·h/mL. The AUC(0-t) (in vivo; [6]) was 242 ± 106 ng·h/mL, the CL/F (in vivo; [6]) was 863 mL/min/kg and the Cmax (in vivo; [6]) was 97.1 ± 55.5 ng/mL. The MRT inf (in vivo; [6]) was 2.78 ± 0.57 h, the MRT last (in vivo; [6]) was 2.72 ± 0.51 h and the Tmax (in vivo; [6]) was 0.37 ± 0.36 h. The Vd/F (in vivo; [6]) was 99.1 ± 53.7 L/kg and the half-life (in vivo; [6]) was 1.38 ± 0.25 h.

With `CCCCNC(=O)NS(=O)(=O)c1ccc(C)cc1` [Tolbutamide] the “Increase of AUC0→t” value (in vivo; [5]) was 0.86 fold, the “Increase of AUC0→∞” value (in vivo; [5]) was 0.83 fold and the “Increase of Cmax” value (in vivo; [5]) was 0.67 fold. For the same molecule, the CL/F (in vivo; [2]) was 0.167 mL/min/kg, the Tmax (in vivo; [2]) was 3 ± 1 h and the Vd/F (in vivo; [2]) was 0.03 ± 0.01 L/kg. For the same molecule, the half-life (in vivo; [2]) was 4.99 ± 1.56 h.

In the case of `CCOc1ccc(NC(C)=O)cc1` [Phenacetin], the AUC(0-inf) (in vivo; [6]) is reported as 5040 ng·h/mL, the AUC(0-t) (in vivo; [6]) is reported as 5040 ng·h/mL and the CL/F (in vivo; [6]) is reported as 37.5 mL/min/kg. It also gave a Cmax (in vivo; [6]) of 3870 ng/mL, an MRT inf (in vivo; [6]) of 1.13 ± 0.21 h and an MRT last (in vivo; [6]) of 1.12 ± 0.2 h. For the same molecule, the Tmax (in vivo; [6]) was 0.3 ± 0.11 h, the Vd/F (in vivo; [6]) was 1.97 ± 0.81 L/kg and the “Difference in pharmacokinetic parameters” value (in vivo; rat, in vivo) was “not significantly different”.

Work on `Cc1ncc2n1-c1ccc(Cl)cc1C(c1ccccc1F)=NC2` [Midazolam] yielded an AUC(0-inf) (in vivo; [6]) of 657 ± 198 ng·h/mL, an AUC(0-t) (in vivo; [6]) of 625 ± 194 ng·h/mL and a CL/F (in vivo; [6]) of 282 mL/min/kg. It also gave a Cmax (in vivo; [6]) of 335 ± 191 ng/mL, an MRT inf (in vivo; [6]) of 2.34 ± 1.12 h and an MRT last (in vivo; [6]) of 1.9 ± 0.6 h. For the same molecule, the Tmax (in vivo; [6]) was 0.18 ± 0.09 h, the Vd/F (in vivo; [6]) was 39.4 ± 20.4 L/kg and the half-life (in vivo; [6]) was 1.85 ± 1.18 h. For the same molecule, the “Difference in pharmacokinetic parameters” value (in vivo; [3]) was “significant differences”, the “Difference in pharmacokinetic parameters” value (in vivo; rats, Student's t-test, P < 0.05, listed as midazolam) was “significant” and the “Decrease of CLz/F by vonoprazan” value (in vivo; [4]) was 54.7%. The “Increase of AUC0→t” value (in vivo; [4]) was 1.17 fold, the “Increase of AUC0→∞” value (in vivo; [4]) was 1.25 fold and the “Increase of Tmax by addition of vonoprazan” value (in vivo; [4]) was 1.50 fold.
